According to patent US20260041620A1, “NOVEL AMINO ACID BASED SALTS, COMPOSITIONS AND METHODS FOR TREATING SKIN AND IMPROVING SKIN REJUVENATION AND LONGEVITY” (Sytheon Ltd, priority 2023, published 2026):
Like-named read-outs stand apart in the source and are kept apart here.

Legend:
[1] = test system: Type I Collagen; experiment: Type I Collagen Assay (ELISA, fibroblast culture medium); type: cell-based, human; details: 10 μg/ml, 48 hours; untreated 1255 ± 83
Description: (§1) In the study, human neonatal fibroblasts were seeded into the individual wells of a 48-well plate in 0.25 ml of Fibroblasts Growth Media (FGM) and incubated overnight at 37±2° C. and a 5±1% CO2 atmosphere. On the following day the media was removed via aspiration to eliminate non-adherent cells and replaced with 0.5 ml of fresh FGM. The cells were grown until confluent, with a media change every 48 to 72 hours. Upon reaching confluency the cells were treated for 24 hours with Dulbecco's Modified Eagle's medium (DMED) supplemented with 1.5% Fetal Bovine Serum (FBS) to wash out any effects from the growth factors included in the normal culture media. After this 24-hour wash out period the cells were treated with the test materials at the specified concentrations dissolved in FGM with 1.5% FBS. Sodium ascorbate (10 ug/ml) was used as a positive control. Untreated cells (negative controls) only received DMEM with […], The cells were incubated for 48 hours and at the end of the incubation period, cell culture medium was collected and either stored frozen (−75 C) or assayed immediately. Materials were tested in triplicate.
A series of type I collagen peptide standards was prepared ranging from 0 ng/ml to 640 ng/ml. An ELISA microplate was prepared by removing any unneeded strips from the plate frame followed by the addition of 100 μl of peroxidase labelled anti-procollagen type I-C peptide antibody to each well used in the assay. A 20 μl sample of each of the collected tissue culture media or a standard was then added to appropriate wells and the microplate covered and allowed to incubate for 3±0.25 hours at 37 C. Following incubation, the wells were aspirated and washed three times with 400 μl of wash buffer. After the last wash was remove 100 μl of peroxidase substrate solution (hydrogen peroxide+tetramethylbenzidine as a chromogen) was added to each well and the plate incubated for 15±4 minutes at room temperature. Following this incubation, 100 μl of stop solution (1 N sulfuric acid) was added to each well and the plate read using a microplate reader at 450 nm.
(§2) To quantify the amount of each substance present, a standard curve was generated using known concentrations of each substance. A regression analysis was performed to establish the line that best fit those data points. Absorbance values for the test materials and untreated samples were used to estimate the amount of each substance present in each sample. Treatment means were compared using ANOVA, with an […] per treatment. Statistical significance was set at p≤0.05.

[2] = test system: Type IV Collagen; experiment: Type IV Collagen Assay (ELISA, fibroblast culture medium); type: cell-based, human; details: 10 μg/ml, 48 hours; untreated 7.76 ± 0.92
Description: as §1
A series of type IV collagen peptide standards was prepared ranging from 0 ng/ml to 640 ng/ml. 100 μl of each standard or of each of the collected tissue culture media were added to the wells of type IV collagen ELISA plates. The plates were then incubated at 37° C. for 1 hour. After incubation, the ELISA plates were then washed twice with wash buffer, followed by the addition of 100 μl of detection antibody solution. The ELISA plates were then incubated for 1 hour at 37° C. Following incubation, the ELISA plates were washed with wash solution followed by the addition of 100 μl HEP conjugate solution and incubated at 37° C. for 30 minutes. Following the latter incubation, the ELISA plates were again washed and 100 μl of the substrate solution was added to each well and the well plates incubated for 10-30 minutes at room temperature to allow the color generation reaction to occur. At the end of the color generation reaction 100 μl of stop solution (1 N sulfuric acid) was added to each well and the plates read at 460 nm using a plate reader.
as §2

[3] = biological target: T1, HDAC7 (Homo sapiens, UniProt Q8WUI4)
T1 sequence (Q8WUI4 1-952): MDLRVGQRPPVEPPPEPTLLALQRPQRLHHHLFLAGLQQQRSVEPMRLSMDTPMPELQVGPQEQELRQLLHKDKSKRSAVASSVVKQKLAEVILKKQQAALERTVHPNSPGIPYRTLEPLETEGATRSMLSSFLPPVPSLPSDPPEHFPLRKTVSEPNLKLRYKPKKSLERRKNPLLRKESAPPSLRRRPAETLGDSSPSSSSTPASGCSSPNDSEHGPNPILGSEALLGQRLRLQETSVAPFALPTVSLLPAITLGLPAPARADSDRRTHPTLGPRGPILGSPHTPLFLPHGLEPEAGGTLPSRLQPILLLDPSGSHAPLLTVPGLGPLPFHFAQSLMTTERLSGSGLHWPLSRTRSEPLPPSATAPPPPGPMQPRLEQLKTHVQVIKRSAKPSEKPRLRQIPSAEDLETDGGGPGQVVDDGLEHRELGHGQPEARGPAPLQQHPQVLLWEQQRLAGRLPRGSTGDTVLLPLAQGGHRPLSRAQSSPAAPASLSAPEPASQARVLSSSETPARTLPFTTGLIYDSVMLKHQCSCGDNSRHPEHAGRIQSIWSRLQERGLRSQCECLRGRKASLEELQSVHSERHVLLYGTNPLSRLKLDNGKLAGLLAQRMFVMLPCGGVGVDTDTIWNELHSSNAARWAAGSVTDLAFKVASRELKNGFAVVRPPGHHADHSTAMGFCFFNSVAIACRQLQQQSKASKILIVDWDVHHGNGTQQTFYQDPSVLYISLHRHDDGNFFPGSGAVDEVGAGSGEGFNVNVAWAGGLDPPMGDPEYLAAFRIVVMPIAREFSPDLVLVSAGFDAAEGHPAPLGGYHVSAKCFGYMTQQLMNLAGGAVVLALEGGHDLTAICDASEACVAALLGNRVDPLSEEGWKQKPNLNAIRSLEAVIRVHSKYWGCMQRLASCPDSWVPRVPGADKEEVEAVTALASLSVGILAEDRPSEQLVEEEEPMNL
Description: (§3) Test materials were stored at room temperature and stock solutions were prepared at 20 mg/ml in DMSO. Further dilutions were made in sterile distilled water immediately before being added to the reaction mixture containing a substrate, and the reaction was triggered by the addition of purified HDAC enzymes, Double distilled water was the negative control and trichostatin (1.5 ug/ml) was used as a positive control for validation of each study. The test procedure was as directed in the assay kits. The products of the reactions were measured by fluorometry at ex/em 350/450 nm using multi-well plate fluorometer Cytofluor 4000 (Applied Biosystem, Foster City, CA) or using SpectraMax i3× Multi-Mode Detection Platform from Molecular Devices (Sunnyvale, CA).
(§4) Statistical significance was assessed with a two-tail Student test. Deviations of ≤20% as compared to water control with p values below 0.05 were considered statistically significant.

[4] = biological target: T2, FABP-5 (Homo sapiens, UniProt Q01469); experiment: FABP-5 ELISA inhibitory assay; type: biochemical
T2 construct: purchased Raybiotech 268-10276-1
T2 sequence (Q01469 whole entry): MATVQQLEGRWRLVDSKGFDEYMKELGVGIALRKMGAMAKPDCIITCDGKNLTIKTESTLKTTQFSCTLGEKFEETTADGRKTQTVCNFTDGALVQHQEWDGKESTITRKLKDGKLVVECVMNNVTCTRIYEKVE

[5] = biological target: T3, FABP-3 (Homo sapiens, UniProt P05413); experiment: FABP-3 ELISA inhibitory assay; type: biochemical
T3 construct: purchased Neovateinbio PT-452
T3 sequence (P05413 whole entry): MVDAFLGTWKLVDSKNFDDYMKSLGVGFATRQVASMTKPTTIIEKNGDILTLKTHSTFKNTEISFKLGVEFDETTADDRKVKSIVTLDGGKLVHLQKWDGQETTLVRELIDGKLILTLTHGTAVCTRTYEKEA

[6] = biological target: T4, HDAC 11 (Homo sapiens, UniProt Q96DB2); experiment: HDAC 11 fluorogenic assay kit; type: biochemical
T4 construct: purchased BPS Biosciences 50687
T4 sequence (Q96DB2 1-347): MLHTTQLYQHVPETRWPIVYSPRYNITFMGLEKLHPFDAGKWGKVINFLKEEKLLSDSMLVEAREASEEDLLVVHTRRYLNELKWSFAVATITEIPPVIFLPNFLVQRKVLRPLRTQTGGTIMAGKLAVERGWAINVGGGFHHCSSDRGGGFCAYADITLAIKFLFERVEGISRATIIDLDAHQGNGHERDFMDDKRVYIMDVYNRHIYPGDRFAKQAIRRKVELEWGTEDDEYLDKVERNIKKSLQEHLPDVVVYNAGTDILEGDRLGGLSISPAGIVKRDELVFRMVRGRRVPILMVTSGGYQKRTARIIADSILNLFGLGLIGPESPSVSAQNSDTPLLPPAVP

[7] = biological target: HDAC1 (Homo sapiens, UniProt Q13547); experiment: HDAC 1 fluorogenic assay kit; details: 200 ug/ml
Chain of HDAC1 (Q13547 whole entry): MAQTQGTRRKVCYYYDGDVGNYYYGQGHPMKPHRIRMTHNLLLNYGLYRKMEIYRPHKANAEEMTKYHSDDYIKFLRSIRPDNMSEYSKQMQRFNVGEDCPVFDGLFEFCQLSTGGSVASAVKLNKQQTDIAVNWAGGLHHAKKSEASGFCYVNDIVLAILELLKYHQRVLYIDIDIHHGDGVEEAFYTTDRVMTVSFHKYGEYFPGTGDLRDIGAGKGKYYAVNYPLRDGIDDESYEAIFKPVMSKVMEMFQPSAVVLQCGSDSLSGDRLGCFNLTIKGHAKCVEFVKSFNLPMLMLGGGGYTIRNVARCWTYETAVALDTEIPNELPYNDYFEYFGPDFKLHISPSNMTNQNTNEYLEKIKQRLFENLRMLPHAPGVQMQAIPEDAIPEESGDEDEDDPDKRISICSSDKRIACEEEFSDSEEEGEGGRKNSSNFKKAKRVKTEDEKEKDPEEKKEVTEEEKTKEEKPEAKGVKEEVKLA
Description: as §3, §4

[8] = biological target: T5, MAGL (Homo sapiens, UniProt Q99685); experiment: MAGL inhibitory assay; type: biochemical
T5 construct: purchased Cayman 10007812
T5 sequence (Q99685 1-303): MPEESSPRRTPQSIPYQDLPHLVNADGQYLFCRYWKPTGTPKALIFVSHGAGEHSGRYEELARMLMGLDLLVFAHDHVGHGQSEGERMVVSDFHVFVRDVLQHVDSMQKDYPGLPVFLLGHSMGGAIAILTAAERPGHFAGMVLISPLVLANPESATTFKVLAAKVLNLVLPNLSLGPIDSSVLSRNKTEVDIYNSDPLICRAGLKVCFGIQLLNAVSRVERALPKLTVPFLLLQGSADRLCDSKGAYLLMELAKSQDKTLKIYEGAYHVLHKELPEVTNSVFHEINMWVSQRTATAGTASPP
Description: Each study was performed in duplicate and the results averaged.
The final concentration in each well was 10 μl of sample, 5.6 μM MAGL (Cayman Catalog #10007812) and 23.6 μM 2-Arachidonoyl Glycerol (Cayman catalog #62160).

[9] = biological target: T6, FAAH (Homo sapiens, UniProt O00519); experiment: FAAH fluorescence-based inhibitory assay; type: biochemical
T6 sequence (O00519 1-579): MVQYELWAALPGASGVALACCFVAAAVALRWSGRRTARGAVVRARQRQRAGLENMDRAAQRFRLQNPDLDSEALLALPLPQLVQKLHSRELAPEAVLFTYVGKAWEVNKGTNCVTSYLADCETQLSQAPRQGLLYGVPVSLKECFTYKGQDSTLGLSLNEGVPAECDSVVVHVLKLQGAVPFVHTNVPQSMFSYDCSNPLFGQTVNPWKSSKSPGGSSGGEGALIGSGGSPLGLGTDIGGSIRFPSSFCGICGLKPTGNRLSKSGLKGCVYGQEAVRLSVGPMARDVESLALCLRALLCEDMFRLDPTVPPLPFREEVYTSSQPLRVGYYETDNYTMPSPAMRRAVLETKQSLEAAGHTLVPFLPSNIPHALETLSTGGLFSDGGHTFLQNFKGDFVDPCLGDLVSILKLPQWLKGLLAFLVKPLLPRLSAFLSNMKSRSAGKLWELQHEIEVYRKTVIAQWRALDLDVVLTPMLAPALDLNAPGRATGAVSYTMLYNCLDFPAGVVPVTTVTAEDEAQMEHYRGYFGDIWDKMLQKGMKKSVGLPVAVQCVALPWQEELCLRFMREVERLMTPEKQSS

[10] = biological target: HDAC 3 (Homo sapiens, UniProt O15379)
Chain of HDAC 3 (O15379 whole entry): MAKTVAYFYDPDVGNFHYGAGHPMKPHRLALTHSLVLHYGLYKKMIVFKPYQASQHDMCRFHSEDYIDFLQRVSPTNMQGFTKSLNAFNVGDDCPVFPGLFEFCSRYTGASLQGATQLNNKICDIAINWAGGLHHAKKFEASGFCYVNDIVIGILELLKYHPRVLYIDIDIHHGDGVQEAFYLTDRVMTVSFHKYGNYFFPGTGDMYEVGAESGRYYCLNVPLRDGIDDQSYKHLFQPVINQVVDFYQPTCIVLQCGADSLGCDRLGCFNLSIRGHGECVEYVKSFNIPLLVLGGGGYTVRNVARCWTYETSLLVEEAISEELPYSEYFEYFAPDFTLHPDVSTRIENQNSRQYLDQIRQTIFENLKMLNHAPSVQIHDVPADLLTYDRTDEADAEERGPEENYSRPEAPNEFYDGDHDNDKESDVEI
Chain of HDAC 3 (Q9Y618 395-489 partner limits assumed): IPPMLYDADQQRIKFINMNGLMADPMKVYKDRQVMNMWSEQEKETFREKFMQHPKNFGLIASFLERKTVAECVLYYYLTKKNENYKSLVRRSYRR
Description: as §3, §4

[11] = biological target: T7, HDAC10 (Homo sapiens, UniProt Q969S8)
T7 sequence (Q969S8 1-669): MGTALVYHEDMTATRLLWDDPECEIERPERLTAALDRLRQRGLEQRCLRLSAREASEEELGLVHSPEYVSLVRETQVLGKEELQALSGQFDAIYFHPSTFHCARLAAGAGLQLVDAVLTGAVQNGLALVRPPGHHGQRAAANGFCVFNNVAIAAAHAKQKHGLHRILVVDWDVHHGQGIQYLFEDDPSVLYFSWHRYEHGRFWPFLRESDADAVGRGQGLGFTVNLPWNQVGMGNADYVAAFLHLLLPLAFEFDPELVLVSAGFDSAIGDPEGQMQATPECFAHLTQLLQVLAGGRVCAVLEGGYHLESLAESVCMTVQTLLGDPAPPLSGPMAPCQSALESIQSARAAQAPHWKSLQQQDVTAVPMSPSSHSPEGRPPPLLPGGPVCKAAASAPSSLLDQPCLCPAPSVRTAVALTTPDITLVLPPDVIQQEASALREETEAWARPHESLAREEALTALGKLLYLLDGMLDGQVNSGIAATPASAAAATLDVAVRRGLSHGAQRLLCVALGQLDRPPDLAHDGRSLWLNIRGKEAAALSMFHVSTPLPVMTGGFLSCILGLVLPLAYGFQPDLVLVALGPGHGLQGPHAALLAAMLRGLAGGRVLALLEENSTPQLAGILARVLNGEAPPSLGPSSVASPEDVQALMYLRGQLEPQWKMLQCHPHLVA
Description: as §3, §4

[12] = biological target: HDAC 4 (Homo sapiens, UniProt P56524); experiment: HDAC 4 fluorogenic assay kit
Chain of HDAC 4 (P56524 whole entry): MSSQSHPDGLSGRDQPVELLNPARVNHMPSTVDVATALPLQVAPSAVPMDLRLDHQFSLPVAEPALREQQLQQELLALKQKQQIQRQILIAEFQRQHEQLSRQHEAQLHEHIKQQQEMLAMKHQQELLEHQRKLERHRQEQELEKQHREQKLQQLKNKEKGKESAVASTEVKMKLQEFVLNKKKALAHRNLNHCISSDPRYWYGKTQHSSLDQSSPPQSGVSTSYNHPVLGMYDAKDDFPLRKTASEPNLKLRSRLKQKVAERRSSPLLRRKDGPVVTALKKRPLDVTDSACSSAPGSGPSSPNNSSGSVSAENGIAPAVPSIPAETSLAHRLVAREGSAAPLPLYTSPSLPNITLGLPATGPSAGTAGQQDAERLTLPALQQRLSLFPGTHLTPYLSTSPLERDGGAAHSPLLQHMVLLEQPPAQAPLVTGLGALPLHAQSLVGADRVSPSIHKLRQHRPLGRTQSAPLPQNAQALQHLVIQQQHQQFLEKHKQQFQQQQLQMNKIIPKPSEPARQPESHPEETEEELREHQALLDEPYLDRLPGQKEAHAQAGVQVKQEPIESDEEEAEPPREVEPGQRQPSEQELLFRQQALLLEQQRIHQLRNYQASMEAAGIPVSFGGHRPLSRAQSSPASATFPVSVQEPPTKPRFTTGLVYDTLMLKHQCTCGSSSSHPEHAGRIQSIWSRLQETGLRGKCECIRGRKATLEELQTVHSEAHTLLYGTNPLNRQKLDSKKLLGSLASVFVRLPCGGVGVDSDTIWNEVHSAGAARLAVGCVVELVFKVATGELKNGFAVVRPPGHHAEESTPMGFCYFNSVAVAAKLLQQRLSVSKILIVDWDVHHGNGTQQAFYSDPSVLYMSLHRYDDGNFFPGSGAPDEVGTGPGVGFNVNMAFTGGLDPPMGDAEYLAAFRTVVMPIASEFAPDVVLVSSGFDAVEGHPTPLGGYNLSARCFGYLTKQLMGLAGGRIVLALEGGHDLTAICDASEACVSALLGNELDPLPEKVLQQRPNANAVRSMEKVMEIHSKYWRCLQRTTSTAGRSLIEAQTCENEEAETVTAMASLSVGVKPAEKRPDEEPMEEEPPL
Description: as §3, §4

[13] = test system: Telomerase; experiment: Telomerase Activity Quantification qPCR Assay in human dermal fibroblasts; type: cell-based; details: 300 nM, three days
Description: Normal neonatal human dermal fibroblasts (HDF cat, #2310; ScienCell, Oceanside, CA) were grown to confluence in the 6 well plate format and incubated with the test substances identified in Table 3 for three days. Following incubation, the cells were lysed and telomerase activity was determined with Telomerase Activity Quantification qPCR Assay Kit from ScienCell (cat. #8928). Forget-Me-Not™ EvaGreen® qPCR Master Mix (Low ROX) (Biotium, Fremont, CA) was used for real-time quantitative PCR on C1000 Touch System with CFX384™ optical module Detection. For quantifying the level of activity, the Comparative Cq method was used, following the equation: […]
where TPS is telomere primer set, which recognizes and amplifies newly synthesized telomere sequences and Cq(TPS) is the Quantification Cycle Value obtained from the qPCR software. The relative telomerase activity difference between the experimental condition and control is expressed as 2^−ΔCq Telomerase activity was considered different if the level of expression was reasonably high (Cq≤33 cycles to detect), the difference vs. control was >2 fold and the p value, assessed with two-tailed Student test, was <0.05.

In the case of `O=C1O[C@H]([C@@H](O)CO)C([O-])=C1O.[Na+]` [Na ascorbate, Sodium ascorbate], the “Type I Collagen C-Peptide” value [1] is reported as 4018 ± 196 ng/mL and the “Type IV Collagen C-Peptide” value [2] is reported as 67.70 ± 5.03 ng/mL.

`CCCC(=O)NCCCC[C@H](NC(=O)CCC)C(=O)[O-].CCCC(=O)NCCCC[C@H](NC(=O)CCC)C(=O)[O-].[Mg+2]` [Mg di-(di-n-butyryl lysinate), magnesium di-(di-n-butyryl lysinate)] was tested, and the “HDAC 7 activity, % of water-treated controls” value ([3]; 100 ug/ml) was 100%, the “HDAC 7 activity, % of water-treated controls” value ([3]; 200 ug/ml) was 100% and the “FABP-5 IC50” value [4] was 349.1 mg/L. The “FABP-3 IC50” value [5] was 282.5 mg/L, the “HDAC 11 activity, % of water-treated controls” value ([6]; 100 ug/ml) was 91% and the “HDAC 11 activity, % of water-treated controls” value ([6]; 200 ug/ml) was 91%. For the same compound, the “HDAC 1 activity, % of water-treated controls” value [7] was 74%, the “MAGL IC50” value [8] was 101 µg/mL and the “FAAH IC50” value [9] was 368.5 mg/L. For the same compound, the “HDAC 3 activity, % of water-treated controls” value ([10]; 100 ug/ml) was 114%, the “HDAC 3 activity, % of water-treated controls” value ([10]; 200 ug/ml) was 117% and the “HDAC 10 activity, % of water-treated controls” value ([11]; 100 ug/ml) was 98%. The “HDAC 10 activity, % of water-treated controls” value ([11]; 200 ug/ml) was 102%.

In the case of `CCCC(=O)[O-].CCCC(=O)[O-].[Ca+2]` [Ca n-butyrate, reference compound], the “HDAC 4 activity, % of water-treated controls” value (from here on “HDAC 4 activity, %”) ([12]; 25 ug/ml) is reported as 104%, the “HDAC 4 activity, %” value ([12]; 50 ug/ml) is reported as 102% and the “HDAC 4 activity, %” value ([12]; 100 ug/ml) is reported as 109%.

`C=C(C)[C@@H]1CCC(C)=C[C@H]1c1c(O)cc(CCCCC)cc1O` [CBD, Cannabidiol, reference compound] was tested, and the “MAGL IC50” value [8] was 4,130^2 ^ μg/ml.

For `CC(/C=C/C(=O)NO)=C\[C@@H](C)C(=O)c1ccc(N(C)C)cc1` [Trichostatin-A], the “Average Cq(TPS)” value [13] was 32.3, the “Telomerase Activity (FC vs. water)” value [13] was 2.8 FC and the ΔCq sample-water [13] was 1.5.
